One data set concerns the target T1, ovalbumin (Gallus gallus, UniProt P01012).
T1 sequence (P01012 1-386): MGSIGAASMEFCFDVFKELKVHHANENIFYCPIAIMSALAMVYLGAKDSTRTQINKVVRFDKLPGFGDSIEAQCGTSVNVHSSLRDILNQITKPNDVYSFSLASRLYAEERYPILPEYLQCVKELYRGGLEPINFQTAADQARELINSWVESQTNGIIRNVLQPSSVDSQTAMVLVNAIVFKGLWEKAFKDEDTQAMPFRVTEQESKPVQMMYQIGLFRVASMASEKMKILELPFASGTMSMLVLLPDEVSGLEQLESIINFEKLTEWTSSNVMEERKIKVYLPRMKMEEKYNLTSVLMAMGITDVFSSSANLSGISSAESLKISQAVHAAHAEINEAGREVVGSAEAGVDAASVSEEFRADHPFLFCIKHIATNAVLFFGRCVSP
Kind of data set: Solubilization of 0.5 wt % ovalbumin solution by surfactants. In kind it is physicochemical. The source says:
Other surfactants and concentrations were test against a solution 0.5 wt % ovalbumin.

Data set [1] has as its system monovalent "split-varion" influenza vaccine (A/Panama/2007/99, H3N2). It counts as physicochemical, influenza virus.
Where [2] appears, read: 0.5 wt % ovalbumin, Surfactant Concentration 0.0085 M.
[3] abbreviates: 0.5 wt % ovalbumin, Surfactant Concentration 0.017 M.
Where [4] appears, read: 0.5 wt % ovalbumin, Surfactant Concentration 0.035 M.
[5] abbreviates: 0.5 wt % ovalbumin, Surfactant Concentration 0.052 M.
Setting [6] is: 0.5 wt % ovalbumin, Surfactant Concentration 0.069 M.

Read-outs that look alike come from different tables or passages of the source.

In the case of `CCCCCCCCCCCC[N+](C)(C)C.[Br-]` [Dodecyltrimethylammonium Br], the “complete solubilization of ovalbumin solution” value (“complete solubilization” for short) at ovalbumin (setting [2]), at ovalbumin (setting [3]), on ovalbumin (setting [4]), at ovalbumin (setting [5]) and on ovalbumin (setting [6]) was “−” each time.

As for `CCCCCCCCCCCC(=O)[O-].[Na+]` [Sodium laurate], the “complete solubilization” value at ovalbumin (setting [2]) was “−”; on ovalbumin (setting [3]), “−”; on ovalbumin (setting [4]) it was “+”; at ovalbumin (setting [5]), “+”; on ovalbumin (setting [6]) it was “+”.

As to `CCCCCCCCCCCCCCCCCCOS(=O)(=O)[O-].[Na+]` [Sodium octadecylsulfate], the “complete solubilization” value at ovalbumin is on record as “−”.

Take `CCCCCCCCOS(=O)(=O)[O-].[Na+]` [Sodium octylsulfate]: at ovalbumin, the “complete solubilization” value was “−”.

For `CCCCCCCCCCCCCCOS(=O)(=O)[O-].[Na+]` [Sodium tetradecylsulfate], the “complete solubilization” value at ovalbumin is on record as “−”.

With `CCCCCCCCCC[N+](C)(C)CCCS(=O)(=O)[O-]` [Zwittergent 3-10], the “Turbidity @ 340 nanometers (200 μg/ml)” value in data set [1] stood at 0.120.

With `CCCCCCCCCCCC[N+](C)(C)CCCS(=O)(=O)[O-]` [Zwittergent 3-12], the “Turbidity @ 340 nanometers (200 μg/ml)” value in data set [1] is 0.087.

On to `CCCCCCCCCCCCCC[N+](C)(C)CCCS(=O)(=O)[O-]` [Zwittergent 3-14], for which the “Turbidity @ 340 nanometers (200 μg/ml)” value in data set [1] amounted to 0.070.

These data come from patent US20040096455A1, “Transdermal vaccine delivery device having coated microprotrusions” (priority 2002, published 2004).
